Test results from ChEMBL document CHEMBL1201862, “PubChem BioAssay data set” (2004).
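Method: 48-hour compound exposure of cells in 96-well plates, five concentrations, linear interpolation of endpoints. At the GI50, growth is halved.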 Active and inactive are the calls of the source. No stated cut-off is given here; in the data, active = GI50 up to about 1.1 µM and inactive = higher.

Legend:
Test in all cases: inhibition of tumour cell growth, NCI panel, 48 h
[1] = system: DMS-273
[2] = system: XF498
[3] = system: LXFL 529
[4] = system: HOP-18
[5] = system: DMS-114
[6] = system: KM-20L2
[7] = system: DLD-1
[8] = system: BT-549
[9] = system: RXF 631

What does the source list for `O=C(O)C(C(=O)C(=O)C(C(=O)O)c1ccc(Cl)cc1)c1ccc(Cl)cc1` (stereo not given)?
GI50 [1]: 3.64 µM (inactive); GI50 [2]: 2.43 µM (inactive); GI50 [3]: 2.52 µM (inactive); GI50 [4]: 5.32 µM (inactive); GI50 [5]: 2.24 µM (inactive); GI50 [6]: 3.31 µM (inactive); GI50 [7]: 3.52 µM (inactive)

Which GI50 [8] does the source give for `c1ccc(CSc2ccccc2CN2CCN(Cc3ccccc3SCc3ccccc3)CCN(Cc3ccccc3SCc3ccccc3)CC2)cc1` here?
Its GI50 is 1.87 µM (inactive).

`COc1ccc(C2=Nn3c(C)nnc3S/C2=C\c2ccc(-c3ccc([N+](=O)[O-])cc3)o2)cc1` was tested. Which GI50 [8] did it give?
The GI50 was 5.86 µM (inactive).

Which GI50 [8] does the source give for `COC(=O)C(=O)C(C(=O)C(=O)Nc1ccc([N+](=O)[O-])cc1[N+](=O)[O-])c1nc2ccc(Cl)cc2nc1O` (stereo not given) here?
The GI50 was > 100 µM (inactive).

How did the GI50 [1] turn out when `O=C(/C=C\c1cccc2ccccc12)c1ccc(F)cc1` was run?
The GI50 was 15.2 µM (inactive).

What about the GI50 [3] of the same compound?
The GI50 was 17.1 µM (inactive).

And the GI50 [4]?
Its GI50 is 14.3 µM (inactive).

What about the GI50 [5] of the same compound?
The GI50 was 14.4 µM (inactive).

And the GI50 [6]?
The GI50 was 16.6 µM (inactive).

And the GI50 [7]?
The GI50 was 19.1 µM (inactive).

For `O=C1NC(Nc2cccc(Cl)c2)=N/C1=C\c1ccc(Cl)c(Cl)c1`, which GI50 [8] is on record?
Its GI50 is 12.4 µM (inactive).

With `Cc1cc([C@H](C#N)c2nc3ccccc3s2)nc(Cl)n1` as the compound, how does the GI50 [8] read?
The GI50 was 3.94 µM (inactive).

For `Nc1ncnc2c1ncn2C(=O)NC12CC3CC(CC(C3)C1)C2`, which GI50 [8] is on record?
The GI50 was > 100 µM (inactive).

Which GI50 [8] does the source give for `CSc1ncnc2c1cnn2CCCCO` here?
The GI50 was > 100 µM (inactive).

With `O=S(=O)(c1ccccc1)[C@H]1[C@@H]2O[C@@H]2C[C@@H]1O` as the compound, how does the GI50 [8] read?
The GI50 was > 100 µM (inactive).

`O=C(O)C1Cc2ccccc2OC1=O` (stereo not given) was tested. Which GI50 [8] did it give?
Its GI50 is > 100 µM (inactive).

How did the GI50 [8] turn out when `CC(C)=CCN1CC(C)C(=O)Nc2ccccc21` (stereo not given) was run?
The GI50 was > 100 µM (inactive).

Which results are given for `CC(=O)C=C1Nc2ccccc2N1`?
GI50 [2]: > 100 µM (inactive); GI50 [3]: > 100 µM (inactive); GI50 [9]: > 100 µM (inactive); GI50 [6]: > 100 µM (inactive); GI50 [7]: > 100 µM (inactive)

How did the GI50 [8] turn out when `O=C1Oc2ccccc2C(=O)/C1=C/N1C(=O)CNC1=S` was run?
Its GI50 is > 100 µM (inactive).

For `O=C1C(=C2SC(c3ccccc3)(c3ccccc3)c3ccccc32)C(=O)c2ccccc21`, which GI50 [8] is on record?
The GI50 was > 100 µM (inactive).

Which GI50 [8] does the source give for `CC(=O)OCC1OC(n2c(C)c(/N=N/c3ccccc3)c(C)c(C#N)c2=S)C(OC(C)=O)C(OC(C)=O)C1OC(C)=O` (stereo not given) here?
Its GI50 is 49.3 µM (inactive).

With `CC(C)COC(c1ccc2c(c1)OCO2)C(C)Br` (stereo not given) as the compound, how does the GI50 [8] read?
The GI50 was 35.5 µM (inactive).

Which results are given for `CCCN/C(N)=N/C#N`?
GI50 [1]: 62.1 µM (inactive); GI50 [3]: 76.6 µM (inactive); GI50 [4]: > 100 µM (inactive); GI50 [5]: 19.4 µM (inactive); GI50 [6]: 34.7 µM (inactive); GI50 [7]: 66.8 µM (inactive)

How did the GI50 [1] turn out when `COC(=O)C(=O)C1(CCC(C)=O)c2ccccc2-c2c(C)ccc(C)c21` (stereo not given) was run?
Its GI50 is 31.6 µM (inactive).

What about the GI50 [3] of the same compound?
Its GI50 is 37.8 µM (inactive).

What about the GI50 [4] of the same compound?
Its GI50 is 56.4 µM (inactive).

And the GI50 [5]?
The GI50 was 33.7 µM (inactive).

What about the GI50 [6] of the same compound?
Its GI50 is 58.3 µM (inactive).

What about the GI50 [7] of the same compound?
Its GI50 is 50.1 µM (inactive).

Which GI50 [8] does the source give for `Cc1cc2c(c(S(=O)(=O)c3ccc(Cl)cc3[N+](=O)[O-])c1)NCCC2` here?
The GI50 was > 100 µM (inactive).

For `COc1cccc(C=O)c1C(=O)c1cc(O)ccc1O`, which GI50 [1] is on record?
Its GI50 is > 58.7 µM (inactive).

And the GI50 [2]?
The GI50 was 44.2 µM (inactive).

What about the GI50 [4] of the same compound?
The GI50 was 25.1 µM (inactive).

And the GI50 [5]?
The GI50 was 11 µM (inactive).

What about the GI50 [6] of the same compound?
Its GI50 is > 100 µM (inactive).

And the GI50 [7]?
The GI50 was 16.3 µM (inactive).

With `CCCc1c(O)c(=O)c2c(OC)cc(OC)c3c4c(OC)cc(OC)c5c(=O)c(O)c(CCC)c(c1c23)c54` as the compound, how does the GI50 [8] read?
The GI50 was 0.34 µM (active).

How did the GI50 [8] turn out when `CN(C)c1ccc(C(=C2C=CC(=[N+](C)C)C=C2)c2c(O)c(S(=O)(=O)[O-])cc3cc(S(=O)(=O)O)ccc23)cc1` was run?
Its GI50 is > 100 µM (inactive).

Which GI50 [8] does the source give for `CC(=O)OCC(OC(C)=O)C1C[C@H]2O[C@@H]3[C@H](C[C@H]2O1)O[C@@]1(C[C@@H]3C)C[C@H](C)[C@@H]2O[C@]3(C[C@@H]2O1)C[C@H]1O[C@H]2[C@H](C)[C@H]4OC(=O)CC5CC[C@H]6OC7[C@H]8O[C@]9(CC[C@H]%10CC(O)(CO)[C@H](CC[C@H]%11C[C@@H](C)C(O)(CO)C(C[C@@H]4O[C@H]2C[C@H]1O3)O%11)O%10)CC8O[C@@H]7[C@@H](O9)[C@H]6O5` (stereo not given in full) here?
Its GI50 is 0.00185 µM (active).

Which GI50 [1] does the source give for `C=C1C(=O)c2cc3c(cc2C(c2cc(OC)c(OC)c(OC)c2)[C@@H]1C(=O)O)OCO3` (stereo not given in full) here?
The GI50 was > 10 µM (inactive).

What about the GI50 [3] of the same compound?
Its GI50 is 51.5 µM (inactive).

And the GI50 [4]?
Its GI50 is > 100 µM (inactive).

And the GI50 [5]?
The GI50 was 36.7 µM (inactive).

And the GI50 [7]?
The GI50 was 55.3 µM (inactive).

Which results are given for `CC12CC[C@H](O)C(C)(C)[C@H]1CC[C@](C)(O)C2COc1ccc2ccc(=O)oc2c1` (stereo not given in full)?
GI50 [1]: > 100 µM (inactive); GI50 [2]: > 100 µM (inactive); GI50 [3]: > 100 µM (inactive); GI50 [4]: > 100 µM (inactive); GI50 [5]: 85.3 µM (inactive); GI50 [6]: > 100 µM (inactive); GI50 [7]: > 100 µM (inactive)

What does the source list for `COC1C(O)=C2C(=O)O/C(C)=C/C=C/C=C/C=C\CC(c3ccccc3)NC(=O)\C=C/C=C\C=C\C=C\[C@@]2(C)[C@@H]1O` (stereo not given in full)?
GI50 [8]: < 0.01 µM (active); GI50 [2]: 0.0213 µM (active); GI50 [5]: 0.0249 µM (active); GI50 [6]: < 0.01 µM (active); GI50 [7]: < 0.01 µM (active)

For `Cc1ccc(/C=C2\CCCc3ccccc3C2=O)cc1`, which GI50 [8] is on record?
Its GI50 is 10.1 µM (inactive).

Which results are given for `Clc1ccc(C(c2ccc(Cl)cc2)c2ccccn2)cc1`?
GI50 [2]: 18.2 µM (inactive); GI50 [3]: 17.7 µM (inactive); GI50 [4]: 24.8 µM (inactive); GI50 [5]: 28.4 µM (inactive); GI50 [6]: 14.4 µM (inactive); GI50 [7]: 20.8 µM (inactive)

Which GI50 [8] does the source give for `CC(C)=CC[C@H]1C[C@]2(CC=C(C)C)C(=O)[C@@](CC=C(C)C)(C(=O)C(C(=O)c3ccccc3)=C2O)C1(C)C` [6-EPI-CLUSIANONE] here?
Its GI50 is 8.93 µM (inactive).

Which GI50 [8] does the source give for `O=S1(=O)OC(c2ccc(O)cc2)(c2ccc(O)cc2)c2ccccc21` [PHENOLSULFONPHTHALEIN] here?
The GI50 was > 100 µM (inactive).
